Experimental data from US5262417A, “Antibacterial quinolone compounds” (The Upjohn Company, priority 1991, dated 1993).
Values after ≈ are worked out from the molar mass of the structure shown. Read-outs that look alike come from different tables or passages of the source.

Tests used:
Test in all cases: Minimum inhibitory concentration (MIC) by agar dilution
Format in all cases: cell-based
[1] = tested on: Acinetobacter calcoaceticus; conditions: Acinetobacter calcoaceticus
Procedure: (§1) The antibacterial activity of the compounds of Formula IC was determined by using standard testing procedures such as the determination of minimum inhibitory concentration (MIC) by agar dilution as described in "Methods for Dilution Antimicrobial Susceptibility Tests for Bacteria That Grow Aerobically" (MFT) published January 1983 by the National Committee for Clinical Laboratory Standards, 771 East Lancaster Avenue, Villanova, Pa. 19084, USA. Briefly, MIC values are determined in unsupplemented Mueller Hinton Agar (MHA). The compounds tested are diluted serially into molten MHA at 47° C. The agar is poured into petri dishes and allowed to harden. The various bacteria used for testing are grown overnight on MHA at 35° C. and transferred to Trypticase soy broth (TSB) until a turbidity of 0.5 McFarland standard is obtained. The bacteria are diluted one to 20 in TSB and inoculated on the plates (1 μl using a Steers replicator).
as §1, with “Compounds of this invention can also be tested for in vitro antimicrobial” for “The antibacterial”, “activity” for “activity of the compounds of Formula IC was determined by”, “Jan.” for “January”, “Penna.” for “Pa.”, “(1μl” for “(1 μl”, “replicator). […] The MIC test results of selected of Formula B compounds of this invention are found in Tables B2-B9.” for “replicator).”

[2] = tested on: Proteus penneri; conditions: Proteus penneri
Procedure: as §1
as §1, with “Compounds of this invention can also be tested for in vitro antimicrobial” for “The antibacterial”, “activity” for “activity of the compounds of Formula IC was determined by”, “Jan.” for “January”, “Penna.” for “Pa.”, “(1μl” for “(1 μl”, “replicator). […] The MIC test results of selected of Formula B compounds of this invention are found in Tables B2-B9.” for “replicator).”

[3] = tested on: Serratia marcescens; conditions: 20 h, read-out: MINIMUM INHIBITORY CONCENTRATION
Procedure: as §1
as §1, with “Compounds of this invention can also be tested for in vitro antimicrobial” for “The antibacterial”, “activity” for “activity of the compounds of Formula IC was determined by”, “Jan.” for “January”, “Penna.” for “Pa.”, “(1μl” for “(1 μl”, “replicator). […] The MIC test results of selected of Formula B compounds of this invention are found in Tables B2-B9.” for “replicator).”

[4] = tested on: Staphylococcus epidermidis; conditions: 20 h
Procedure: as §1
as §1, with “Compounds of this invention can also be tested for in vitro antimicrobial” for “The antibacterial”, “activity” for “activity of the compounds of Formula IC was determined by”, “Jan.” for “January”, “Penna.” for “Pa.”, “(1μl” for “(1 μl”, “replicator). […] The MIC test results of selected of Formula B compounds of this invention are found in Tables B2-B9.” for “replicator).”

[5] = tested on: Streptococcus pneumoniae; conditions: Streptococcus pneumoniae
Procedure: as §1
as §1, with “Compounds of this invention can also be tested for in vitro antimicrobial” for “The antibacterial”, “activity” for “activity of the compounds of Formula IC was determined by”, “Jan.” for “January”, “Penna.” for “Pa.”, “(1μl” for “(1 μl”, “replicator). […] The MIC test results of selected of Formula B compounds of this invention are found in Tables B2-B9.” for “replicator).”

[6] = tested on: Citerobacter freundii
Procedure: as §1
as §1, with “Compounds of this invention can also be tested for in vitro antimicrobial” for “The antibacterial”, “activity” for “activity of the compounds of Formula IC was determined by”, “Jan.” for “January”, “Penna.” for “Pa.”, “(1μl” for “(1 μl”, “replicator). […] The MIC test results of selected of Formula B compounds of this invention are found in Tables B2-B9.” for “replicator).”

[7] = tested on: Escherichia coli; conditions: Escherichia coli
Procedure: as §1
as §1, with “Compounds of this invention can also be tested for in vitro antimicrobial” for “The antibacterial”, “activity” for “activity of the compounds of Formula IC was determined by”, “Jan.” for “January”, “Penna.” for “Pa.”, “(1μl” for “(1 μl”, “replicator). […] The MIC test results of selected of Formula B compounds of this invention are found in Tables B2-B9.” for “replicator).”

[8] = tested on: Streptococcus pyogenes; conditions: Streptococcus pyogenes
Procedure: as §1
as §1, with “Compounds of this invention can also be tested for in vitro antimicrobial” for “The antibacterial”, “activity” for “activity of the compounds of Formula IC was determined by”, “Jan.” for “January”, “Penna.” for “Pa.”, “(1μl” for “(1 μl”, “replicator). […] The MIC test results of selected of Formula B compounds of this invention are found in Tables B2-B9.” for “replicator).”

[9] = tested on: Staphylococcus aureus; conditions: Staphylococcus aureus
Procedure: as §1
as §1, with “Compounds of this invention can also be tested for in vitro antimicrobial” for “The antibacterial”, “activity” for “activity of the compounds of Formula IC was determined by”, “Jan.” for “January”, “Penna.” for “Pa.”, “(1μl” for “(1 μl”, “replicator). […] The MIC test results of selected of Formula B compounds of this invention are found in Tables B2-B9.” for “replicator).”

[10] = tested on: Klebsiella pneumoniae
Procedure: as §1
as §1, with “Compounds of this invention can also be tested for in vitro antimicrobial” for “The antibacterial”, “activity” for “activity of the compounds of Formula IC was determined by”, “Jan.” for “January”, “Penna.” for “Pa.”, “(1μl” for “(1 μl”, “replicator). […] The MIC test results of selected of Formula B compounds of this invention are found in Tables B2-B9.” for “replicator).”

[11] = tested on: Pseudomonas aeruginosa; conditions: Pseudomonas aeruginosa
Procedure: as §1
as §1, with “Compounds of this invention can also be tested for in vitro antimicrobial” for “The antibacterial”, “activity” for “activity of the compounds of Formula IC was determined by”, “Jan.” for “January”, “Penna.” for “Pa.”, “(1μl” for “(1 μl”, “replicator). […] The MIC test results of selected of Formula B compounds of this invention are found in Tables B2-B9.” for “replicator).”

[12] = tested on: Streptococcus faecalis; conditions: Enterococcus faecalis
Procedure: as §1
as §1, with “Compounds of this invention can also be tested for in vitro antimicrobial” for “The antibacterial”, “activity” for “activity of the compounds of Formula IC was determined by”, “Jan.” for “January”, “Penna.” for “Pa.”, “(1μl” for “(1 μl”, “replicator). […] The MIC test results of selected of Formula B compounds of this invention are found in Tables B2-B9.” for “replicator).”

[13] = tested on: Enterobacter cloacae
Procedure: Briefly, MIC values are determined in unsupplemented Mueller Hinton Agar (MHA). The compounds tested are diluted serially into molten MHA at 47° C. The agar is poured into petri dishes and allowed to harden. The various bacteria used for testing are grown overnight on MHA at 35° C. and transferred to Trypticase soy broth (TSB) until a turbidity of 0.5 McFarland standard is obtained. The bacteria are diluted one to 20 in TSB and inoculated on the plates (1 μl using a Steers replicator).
as §1, with “Compounds of this invention can also be tested for in vitro antimicrobial” for “The antibacterial”, “activity” for “activity of the compounds of Formula IC was determined by”, “Jan. […]” for “January 1983 by the National Committee for Clinical Laboratory Standards, 771 East Lancaster Avenue, Villanova, Pa. 19084, USA.”, “(1μl” for “(1 μl”

[14] = 20 h, read-out: MINIMUM INHIBITORY CONCENTRATION

## O=C(O)c1cn(C23CC(C2)C3)c2nc(N3CCC(O)C3)c(F)cc2c1=O (racemic) [No. 91, 7-(3-hydroxy-1-pyrrolidinyl)-1-(bicyclo[1.1.1]pent-1-yl)-1,4-dihydro-6-fluoro-4-oxo-1,8-naphthyridine-3-carboxylic acid]
[1]; 20 h, read-out: MINIMUM INHIBITORY CONCENTRATION, Cult No. 12170, MHA
  MIC: 0.5 mg/L (≈ 1.39 µM)
[2]; 20 h, read-out: MINIMUM INHIBITORY CONCENTRATION, Cult No. 9679, MHA
  MIC: 1 mg/L (≈ 2.78 µM)
[3]
  MIC: 1 mg/L (≈ 2.78 µM)
[4]; read-out: MINIMUM INHIBITORY CONCENTRATION
  MIC: 0.125 mg/L (≈ 0.348 µM)
[5]; 20 h, read-out: MINIMUM INHIBITORY CONCENTRATION, Cult No. 41, MHA
  MIC: 1 mg/L (≈ 2.78 µM)
[6]; [14]
  MIC: 0.25 mg/L (≈ 0.696 µM)
[7]; 20 h, read-out: MINIMUM INHIBITORY CONCENTRATION, Cult No. 6674, MHA
  MIC: 0.125 mg/L (≈ 0.348 µM)
[7]; 20 h, read-out: MINIMUM INHIBITORY CONCENTRATION, Cult No. 9451, MHA
  MIC: 0.25 mg/L (≈ 0.696 µM)
[7]; 20 h, read-out: MINIMUM INHIBITORY CONCENTRATION, Cult No. 9855, MHA
  MIC: 0.25 mg/L (≈ 0.696 µM)
[7]; 20 h, read-out: MINIMUM INHIBITORY CONCENTRATION, Cult No. 9952, MHA
  MIC: 0.125 mg/L (≈ 0.348 µM)
[8]; 20 h, read-out: MINIMUM INHIBITORY CONCENTRATION, Cult No. 152, MHA
  MIC: 2 mg/L (≈ 5.57 µM)
[9]; 20 h, read-out: MINIMUM INHIBITORY CONCENTRATION, Cult No. 6685, MHA
  MIC: 0.06 mg/L (≈ 0.167 µM)
[9]; 20 h, read-out: MINIMUM INHIBITORY CONCENTRATION, Cult No. 9213, MHA
  MIC: 0.125 mg/L (≈ 0.348 µM)
[9]; 20 h, read-out: MINIMUM INHIBITORY CONCENTRATION, Cult No. 9218, MHA
  MIC: 0.125 mg/L (≈ 0.348 µM)
[9]; 20 h, read-out: MINIMUM INHIBITORY CONCENTRATION, Cult No. 9271, MHA
  MIC: 0.125 mg/L (≈ 0.348 µM)
[10]; [14]
  MIC: 0.5 mg/L (≈ 1.39 µM)
[11]; 20 h, read-out: MINIMUM INHIBITORY CONCENTRATION, Cult No. 6676, MHA
  MIC: 4 mg/L (≈ 11.1 µM)
[11]; 20 h, read-out: MINIMUM INHIBITORY CONCENTRATION, Cult No. 9191, MHA
  MIC: 2 mg/L (≈ 5.57 µM)
[11]; 20 h, read-out: MINIMUM INHIBITORY CONCENTRATION, Cult No. 12120, MHA
  MIC: 2 mg/L (≈ 5.57 µM)
[12]; [14]
  MIC: 1 mg/L (≈ 2.78 µM)
[13]; [14]
  MIC: 0.25 mg/L (≈ 0.696 µM)

## C#CC(C)(C)n1cc(C(=O)O)c(=O)c2cc(F)c(N3CCNCC3)c(F)c21.CS(=O)(=O)O [A, (+,-)-6,8-difluoro-1,4-dihydro-1-(1,1-dimethyl-2-propynyl)-4-oxo-7-(1-piperazinyl)-3-quinolinecarboxylic acid methanesulfonate]
[1]; UC12170, 20 h, read-out: Minimum Inhibitory Concentration, A. calcoaceticus UC 12170, Table CI
  MIC: 1 mg/L
[2]; UC9679, 20 h, read-out: Minimum Inhibitory Concentration, P. penneri UC 9679, Table CI
  MIC: 1 mg/L
[3]
  MIC: 2 mg/L
[4]; read-out: Minimum Inhibitory Concentration
  MIC: 1 mg/L
[5]; UC41, 20 h, read-out: Minimum Inhibitory Concentration, S. pneumoniae UC 41, Table CI
  MIC: 8 mg/L
[6]; Citrobacter freundii, UC3507, 20 h, read-out: Minimum Inhibitory Concentration
  MIC: 0.25 mg/L
[7]; UC6674, 20 h, read-out: Minimum Inhibitory Concentration, E. coli UC 6674, Table CI
  MIC: 0.25 mg/L
[7]; UC9451, 20 h, read-out: Minimum Inhibitory Concentration, E. coli UC 9451, Table CI
  MIC: 0.25 mg/L
[7]; UC9855, 20 h, read-out: Minimum Inhibitory Concentration, E. coli UC 9855, Table CI
  MIC: 0.25 mg/L
[7]; UC9952, 20 h, read-out: Minimum Inhibitory Concentration, E. coli UC 9952, Table CI
  MIC: 0.25 mg/L
[8]; UC152, 20 h, read-out: Minimum Inhibitory Concentration, S. pyogenes UC 152, Table CI
  MIC: 8 mg/L
[9]; UC6685, 20 h, read-out: Minimum Inhibitory Concentration, S. aureus UC 6685, Table CI
  MIC: 2 mg/L
[9]; UC9213, 20 h, read-out: Minimum Inhibitory Concentration, S. aureus UC 9213, Table CI
  MIC: 4 mg/L
[9]; UC9218, 20 h, read-out: Minimum Inhibitory Concentration, S. aureus UC 9218, Table CI
  MIC: 2 mg/L
[9]; UC9271, 20 h, read-out: Minimum Inhibitory Concentration, S. aureus UC 9271, Table CI
  MIC: 2 mg/L
[10]; UC12081, 20 h, read-out: Minimum Inhibitory Concentration
  MIC: 0.5 mg/L
[11]; UC6676, 20 h, read-out: Minimum Inhibitory Concentration, Ps. aeruginosa UC 6676, Table CI
  MIC: 4 mg/L
[11]; UC9191, 20 h, read-out: Minimum Inhibitory Concentration, Ps. aeruginosa UC 9191, Table CI
  MIC: 2 mg/L
[11]; UC12120, 20 h, read-out: Minimum Inhibitory Concentration, Ps. aeruginosa UC 12120, Table CI
  MIC: 2 mg/L
[12]; UC9217, 20 h, read-out: Minimum Inhibitory Concentration
  MIC: 8 mg/L
[13]; UC9382, 20 h, read-out: Minimum Inhibitory Concentration
  MIC: 0.25 mg/L
